Source: PubChem BioAssay AID1259411 (Chemical Carcinogenesis Research Information System (CCRIS), 2018)
The source made the active and inactive calls. How the calls were made is not given here.

Test system: rodent carcinogenicity bioassays, tumor incidence
Experiment: CCRIS carcinogenicity studies
Settings: Dose: 0, Dose: 0
Summary of the method: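 NCI-built, expert-reviewed records of carcinogenicity and related test outcomes (mutagenicity, tumor promotion/inhibition) compiled from published and report sources, historical span 1985-2011, not updated.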

COC(=O)[C@H]1[C@H]2C[C@@H]3c4[nH]c5cc(OC)ccc5c4CCN3C[C@H]2C[C@@H](OC(=O)c2cc(OC)c(OC)c(OC)c2)[C@@H]1OC
carcinogen call (Species: MOUSE, Strain/Sex: B6C3F1/FEMALE, Route: ORAL, 5, 10 PPM IN DIET FOR 103 WK (STUDY DURATION: 105 WK), 5, 10 PPM IN DIET FOR 103 WK (STUDY DURATION: 105 WK), Tumor Site: Type of Lesion: MAMMARY GLAND: MALIGNANT TUMOR): active; positive | carcinogen call (Species: MOUSE, Strain/Sex: B6C3F1/MALE, Route: ORAL, 5, 10 PPM IN DIET FOR 103 WK (STUDY DURATION: 105 WK), 5, 10 PPM IN DIET FOR 103 WK (STUDY DURATION: 105 WK), Tumor Site: Type of Lesion: SEMINAL VESICLES: CARCINOMA): active; positive | carcinogen call (Species: RAT, Strain/Sex: F344/FEMALE, Route: ORAL, 5, 10 PPM IN DIET FOR 103 WK (STUDY DURATION: 105 WK), 5, 10 PPM IN DIET FOR 103 WK (STUDY DURATION: 105 WK)): inactive; negative | carcinogen call (Species: RAT, Strain/Sex: F344/MALE, Route: ORAL, 5, 10 PPM IN DIET FOR 103 WK (STUDY DURATION: 105 WK), 5, 10 PPM IN DIET FOR 103 WK (STUDY DURATION: 105 WK), Tumor Site: Type of Lesion: ADRENAL GLAND: MALIGNANT PHEOCHROMOCYTOMA OR PHEOCHROMOCYTOMA): active; positive

ClC1=CC(c2cc(Cl)ccc2Cl)=C(Cl)[C@H]2O[C@@H]12
carcinogen call (Species: MOUSE, Strain/Sex: STRAIN-A/FEMALE, Route: INTRAPERITONEAL, 0.1, 0.2 UMOL/UL OF DMSO 5, 10 AND 20 µL GIVEN ON DAYS 4, 8 AND 15 AFTER BIRTH, RESPECTIVELY (STUDY DURATION: 28 WK), 0.1, 0.2 UMOL/UL OF DMSO 5, 10 AND 20 µL GIVEN ON DAYS 4, 8 AND 15 AFTER BIRTH, RESPECTIVELY (STUDY DURATION: 28 WK)): inactive; negative | carcinogen call (Species: MOUSE, Strain/Sex: STRAIN-A/MALE, Route: INTRAPERITONEAL, 0.1, 0.2 UMOL/UL OF DMSO 5, 10 AND 20 µL GIVEN ON DAYS 4, 8 AND 15 AFTER BIRTH, RESPECTIVELY (STUDY DURATION: 28 WK), 0.1, 0.2 UMOL/UL OF DMSO 5, 10 AND 20 µL GIVEN ON DAYS 4, 8 AND 15 AFTER BIRTH, RESPECTIVELY (STUDY DURATION: 28 WK)): inactive; negative

O=NN1CCC1
carcinogen call (Species: HAMSTER, Strain/Sex: SYRIAN/MALE, Route: INTRAGASTRIC, 50 MG/ML IN 0.2 ML STERILIZED WATER 1/WK FOR 50 WK (TOTAL DOSE 500 MG) (STUDY DURATION: LIFESPAN), Tumor Site: Type of Lesion: LIVER: ADENOMA, HEPATOCELLULAR CARCINOMA, HEMANGIOSARCOMA, NOSE: CARCINOMA): active; positive

C=Cc1ccc(C)cc1
carcinogen call (Species: MOUSE, Strain/Sex: SWISS/FEMALE, Route: INTRAGASTRIC, 10, 50, 250 MG/KG IN OLIVE OIL 1/D, 5 D/WK FOR 78 WK (STUDY DURATION: 83 WK), 10, 50, 250 MG/KG IN OLIVE OIL 1/D, 5 D/WK FOR 78 WK (STUDY DURATION: 83 WK)): inactive; negative | carcinogen call (Species: MOUSE, Strain/Sex: SWISS/MALE, Route: INTRAGASTRIC, 10, 50, 250 MG/KG IN OLIVE OIL 1/D, 5 D/WK FOR 78 WK (STUDY DURATION: 83 WK), 10, 50, 250 MG/KG IN OLIVE OIL 1/D, 5 D/WK FOR 78 WK (STUDY DURATION: 83 WK)): inactive; negative | carcinogen call (Species: RAT, Strain/Sex: SPRAGUE-DAWLEY/FEMALE, Route: INTRAGASTRIC, 10, 50, 250, 500 MG/KG IN OLIVE OIL 1/D, 5 D/WK FOR 104 WK (STUDY DURATION: 123 WK), 10, 50, 250, 500 MG/KG IN OLIVE OIL 1/D, 5 D/WK FOR 104 WK (STUDY DURATION: 123 WK)): inactive; negative | carcinogen call (Species: RAT, Strain/Sex: SPRAGUE-DAWLEY/MALE, Route: INTRAGASTRIC, 10, 50, 250, 500 MG/KG IN OLIVE OIL 1/D, 5 D/WK FOR 104 WK (STUDY DURATION: 123 WK), 10, 50, 250, 500 MG/KG IN OLIVE OIL 1/D, 5 D/WK FOR 104 WK (STUDY DURATION: 123 WK)): inactive; negative

O=C1c2ccccc2C(=O)c2c(O)cccc21
carcinogen call (Species: RAT, Strain/Sex: ACI/N/MALE, Route: ORAL, 1% IN BASAL DIET FOR DURATION OF STUDY (STUDY DURATION: 480 D), Tumor Site: Type of Lesion: CECUM: ADENOMA, ADENOCARCINOMA, COLON: ADENOMA, ADENOCARCINOMA, LIVER: TUMOR, STOMACH: TUMOR, Tumor Site: Type of Lesion: CECUM: ADENOMA, ADENOCARCINOMA, COLON: ADENOMA, ADENOCARCINOMA, LIVER: TUMOR, STOMACH: TUMOR): active; positive

O=C1C(c2[nH]c3ccc(S(=O)(=O)O)cc3c2O)=Nc2ccc(S(=O)(=O)O)cc21
carcinogen call (Species: DOG, Strain/Sex: BEAGLE/MALE, FEMALE, Route: ORAL, 1, 2% IN DIET FOR 2 YR, 1, 2% IN DIET FOR 2 YR): inactive; negative | carcinogen call (Species: MOUSE, Strain/Sex: C3H AND C57/MALE, FEMALE, Route: SUBCUTANEOUS, 2.5 MG AS A 1% AQUEOUS SOLUTION 1/WK FOR 2 YR): inactive; negative | carcinogen call (Species: MOUSE, Strain/Sex: CD-1/FEMALE, Route: ORAL, 0.5, 1.5, 5% IN DIET FOR 23 MO (STUDY DURATION: 24 MO), 0.5, 1.5, 5% IN DIET FOR 23 MO (STUDY DURATION: 24 MO)): inactive; negative | carcinogen call (Species: MOUSE, Strain/Sex: CD-1/MALE, Route: ORAL, 0.5, 1.5, 5% IN DIET FOR 22 MO (STUDY DURATION: 24 MO), 0.5, 1.5, 5% IN DIET FOR 22 MO (STUDY DURATION: 24 MO)): inactive; negative | carcinogen call (Species: RAT, Strain/Sex: OSBORNE-MENDEL/MALE, FEMALE, Route: ORAL, 0.5, 1.0, 2.0, 5.0% IN DIET FOR 2 YR, 0.5, 1.0, 2.0, 5.0% IN DIET FOR 2 YR): inactive; negative | carcinogen call (Species: RAT, Strain/Sex: OSBORNE-MENDEL/MALE, FEMALE, Route: SUBCUTANEOUS, 20 MG AS A 2% AQUEOUS SOLUTION 1/WK FOR 2 YR, Tumor Site: Type of Lesion: INJECTION SITE: FIBROSARCOMA): active; positive | carcinogen call (Species: RAT, Strain/Sex: STRAIN-CD/FEMALE, Route: ORAL, 0.5, 1, 2% IN DIET FOR 30 MO TO ANIMALS ALSO EXPOSED IN UTERO THROUGH THE SAME DOSES ADMINISTERED TO PARENTS BEGINNIN, 0.5, 1, 2% IN DIET FOR 30 MO TO ANIMALS ALSO EXPOSED IN UTERO THROUGH THE SAME DOSES ADMINISTERED TO PARENTS BEGINNIN): inactive; negative | carcinogen call (Species: RAT, Strain/Sex: STRAIN-CD/MALE, Route: ORAL, 0.5, 1, 2% IN DIET FOR 29 MO TO ANIMALS ALSO EXPOSED IN UTERO THROUGH THE SAME DOSES ADMINISTERED TO PARENTS BEGINNIN, 0.5, 1, 2% IN DIET FOR 29 MO TO ANIMALS ALSO EXPOSED IN UTERO THROUGH THE SAME DOSES ADMINISTERED TO PARENTS BEGINNIN): inactive; negative

CCNC(=O)N(CCO)N=O
carcinogen call (Species: RAT, Strain/Sex: F344/FEMALE, Route: INTRAVESICULAR, 3.6 MG 2/WK FOR 30 WK (STUDY DURATION: LIFETIME), Tumor Site: Type of Lesion: BLADDER: TUMOR, UTERUS: TUMOR): active; positive | carcinogen call (Species: RAT, Strain/Sex: F344/FEMALE, Route: ORAL, 37, 74 MG/L IN DRINKING WATER 5 D/WK FOR 30 WK (STUDY DURATION: LIFETIME), 37, 74 MG/L IN DRINKING WATER 5 D/WK FOR 30 WK (STUDY DURATION: LIFETIME), Tumor Site: Type of Lesion: MAMMARY GLAND: CARCINOMA): active; positive | carcinogen call (Species: RAT, Strain/Sex: F344/MALE, Route: GAVAGE, 3.6 MG IN 0.2 ML ETHYL ACETATE/CORN OIL (1:1) 2/WK FOR 31 WK (TOTAL DOSE: 223 MG) (STUDY DURATION: 80 WK), Tumor Site: Type of Lesion: LIVER: CARCINOMA, LUNG: CARCINOMA OR ADENOMA, BRAIN: TUMORS, THYROID: CARCINOMA OR ADENOMA, PERITONEUM: MESOTHELIOMA, Tumor Site: Type of Lesion: LIVER: CARCINOMA, LUNG: CARCINOMA OR ADENOMA, BRAIN: TUMORS, THYROID: CARCINOMA OR ADENOMA, PERITONEUM: MESOTHELIOMA): active; positive | carcinogen call (Species: RAT, Strain/Sex: F344/MALE, Route: ORAL, 37, 74 MG/L IN DRINKING WATER 5 D/WK FOR 30 WK (STUDY DURATION: LIFETIME), 37, 74 MG/L IN DRINKING WATER 5 D/WK FOR 30 WK (STUDY DURATION: LIFETIME), Tumor Site: Type of Lesion: LIVER: TUMOR, LUNG: TUMOR, THYROID: FOLLICULAR TUMOR, MESOTHELIUM: TUMOR, NERVOUS SYSTEM: TUMOR, SKIN: TUMOR, Tumor Site: Type of Lesion: LIVER: TUMOR, LUNG: TUMOR, THYROID: FOLLICULAR TUMOR, MESOTHELIUM: TUMOR, NERVOUS SYSTEM: TUMOR, SKIN: TUMOR): active; positive
